The results in this text go back to patent EP4702986A1, “POLYPEPTIDE AND USE THEREOF” (Biocells (Beijing) Biotech Co., Ltd., priority 2023, dated 2024).

Numbered stars: 1 amine (or outer) side, 2 acyl side, 3 side chain; on linkers, the order of the positions; unused ones are H or OH. Bridge positions count the residues as written; N and C are the ends. Peptide text beside a SMILES is read from it. * marks the point of attachment. Feruloyl = COc1cc(/C=C/C(=O)*)ccc1O; Fumaroyl = O=C(O)/C=C/C(=O)*; Suc = O=C(CCC(=O)[*:2])[*:1]

Data set [1] addresses T1, human ETA receptor (Homo sapiens, UniProt P25101).
T1 construct: expressed in transfected cells; host or cells: 293T-17 cells, transient transfection
T1 sequence (P25101 21-427): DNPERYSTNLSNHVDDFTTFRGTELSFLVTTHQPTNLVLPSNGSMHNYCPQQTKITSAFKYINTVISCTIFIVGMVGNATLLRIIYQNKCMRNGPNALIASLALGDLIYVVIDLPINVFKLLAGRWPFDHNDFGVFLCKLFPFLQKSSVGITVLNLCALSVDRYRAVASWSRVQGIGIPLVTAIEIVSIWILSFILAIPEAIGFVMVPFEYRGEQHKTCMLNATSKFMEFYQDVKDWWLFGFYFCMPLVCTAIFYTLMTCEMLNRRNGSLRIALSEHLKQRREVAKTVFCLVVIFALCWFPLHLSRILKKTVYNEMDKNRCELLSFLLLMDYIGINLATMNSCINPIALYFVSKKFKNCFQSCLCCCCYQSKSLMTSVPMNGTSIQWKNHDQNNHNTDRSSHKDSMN
Description: Selectivity of polypeptides on human ETA receptor (IP-One Gq kit, % of positive control ET1). The note with it: read-out: hETAR agonist activity, percentage of activity relative to ET1. It counts as cell-based. The procedure, abridged:
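293T-17 cells transiently transfected with human ETA receptor (48 h), 30,000 cells/well exposed to polypeptides for 1 h at 37°C; IP1 accumulation by HTRF (665/620 nm ratio). Activity given as % of ET1 at the same concentration after PBS-control subtraction.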

The test system of data set [2] is rat model of pMACO. Nature of the data set: Grip strength test in rat model of pMACO. It counts as in vivo, SD rats. The note with it: pMACO rats; 3 administrations (2, 4, 6 h after modeling); IRL1620 5µg/Kg, BX34 7µg/Kg, BX48 5µg/Kg.
The subject of data set [3] is rat model of pMACO. Nature of the data set: Rotarod test in rat model of pMACO. It counts as in vivo, SD rats. The note with it: IRL1620 5 µg/Kg, BX34 7 µg/Kg, BX48 5 µg/Kg, administered 3 times (2, 4, 6 hours after modeling), n=10. An excerpt: (§1) Male SD rats weighing 280-300 g were used and acclimated for at least 3 days. Focal cerebral ischemia was induced by middle cerebral artery occlusion with a suture method under isoflurane anesthesia. The animals were placed in a secure supine position, and a midline incision was made to expose the right common carotid artery, external carotid artery, and internal carotid artery. A 4.0 monofilament nylon suture was advanced from the external carotid artery toward the internal carotid artery lumen until resistance was felt ( ~ 20 mm), indicating middle cerebral artery occlusion. The nylon filament was allowed to stay in place to create a permanent model of focal cerebral ischemia. Successfully modeled rats were randomly assigned to four groups: a solvent (normal saline) group (n=10), a 7 µg/Kg BX-34 group (n=10), a 5 µg/Kg BX-48 group (n=10), and a 5 µg/Kg IRL1620 group (n=10). Each group was administered once at 2 hours, 4 hours, and 6 hours, respectively, after modeling, for a total of three administrations. Grip strength was measured before administration and at 24 hours and on D3 and D7 after administration. A rotarod test and a foot fault test were performed before administration and at 24 hours and day 7 after administration. During the rotarod test, time and distance were recorded, and ratios of the measurement at 24 hours and the measurement at D7 to the pretest measurement were used as analysis indicators. The specific method for the foot fault test was as follows. The rats were placed on an elevated grid floor (29×29 cm, grid opening: 3 cm^2) for 2 minutes, and the number of foot faults (when a forelimb fell through the grid) and the total steps were recorded. % Foot fault = (the number of forelimb faults/the total number of forelimb steps) × 100.
On the technique in general: Falling from the rotarod earlier than controls is read as motor impairment.

Data set [4] has as its system rat model of pMACO. Description: Foot fault test in rat model of pMACO. It is filed as in vivo, SD rats.
Excerpt: as §1

Data set [5] relates to rat model of pMACO. Nature of the data set: Foot fault test in rat model of pMACO. It is filed as in vivo, SD rats. The note with it: rat pMCAO; D7 after administration; comparison in words.
Data set [6] in a line: Determination of half-lives of polypeptides (plasma, LC-MS).
The target of data set [7] is T2, human ETB receptor (Homo sapiens, UniProt P24530).
T2 construct: expressed in transfected cells; host or cells: 293T-17 cells, transient transfection
T2 sequence (P24530 27-442): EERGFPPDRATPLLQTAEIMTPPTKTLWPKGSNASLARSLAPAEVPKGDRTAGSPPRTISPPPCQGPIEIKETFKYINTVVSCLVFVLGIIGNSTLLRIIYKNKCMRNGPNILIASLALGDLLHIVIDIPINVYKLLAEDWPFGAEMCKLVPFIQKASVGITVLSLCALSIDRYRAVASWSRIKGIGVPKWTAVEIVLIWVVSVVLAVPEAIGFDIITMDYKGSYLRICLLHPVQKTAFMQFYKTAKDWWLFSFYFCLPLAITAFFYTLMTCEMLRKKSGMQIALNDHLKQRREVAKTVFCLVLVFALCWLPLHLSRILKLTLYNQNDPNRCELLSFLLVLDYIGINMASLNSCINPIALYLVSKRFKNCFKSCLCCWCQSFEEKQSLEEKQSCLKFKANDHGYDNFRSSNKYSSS
Description: Determination of EC50 of polypeptides against human ETB receptor (IP-One Gq kit). The note with it: 293T-17 cells transfected with PCDNA3.1-hETB; read-out: hETBR agonist activity EC50/nM. It counts as cell-based. As for the experimental part:
293T-17 cells were seeded at a density of 650,000 cells per well in a 6-well plate and cultured overnight in an incubator at 37°C and 5% CO2. Afterward, the cells were transfected with an expression vector, PCDNA3.1-hETB which contained a human ETB receptor gene, at a plasmid concentration of 2.5 µg per well. The cells were further cultured for 48 hours, and green fluorescence expression was observed under a fluorescence microscope. The cells were then digested with trypsin and counted. The activity of compounds on the human ETB receptor was determined with the IP-One Gq kit from Cisbio Bioassays. The cells were suspended in Stim Buffer provided in the kit and the cell suspension was added to a 96-well detection plate at 7 µL cell suspension (containing 30,000 cells) per well. The polypeptides to be tested (prepared according to the Preparation Example of the invention) were diluted in Stim B to obtain a gradient of 11 concentration points. For each concentration point, the polypeptides to be tested were dissolved in Stim B to be at a concentration of 2×, and added at 7 µL to the test cells, while 7 µL of PBS solution was added to the cells in the negative control wells. The plate was sealed and incubated at 37°C for 1 hour in a cell culture incubator. Detection wells, positive control wells containing human endothelin ET1 (ET1: […] (C1-C15,C3-C11)), and PBS control wells were each added with 3 µL of IP1 d2 working solution and 3 µL of IP1 Tb cryptotate Antibody working solution. The plate was then sealed and incubated in the dark at room temperature (25°C±5°C) for 1 hour. The plate seal was removed, and the […] at 665 nm and 620 nm was measured with an ID5 microplate reader. The ratio of the acceptor emission signal to the donor emission signal, i.e., (signal at 665 nm/signal at 620 nm)×10^4, was calculated for each well. With F representing the average value of values of signal at 665 nm/signal at 620 nm for the test samples at various concentrations, a scatterplot was plotted, where the abscissa represented the F value, and the ordinate represented the logarithmic value of the peptide concentration. A curve was fitted with an appropriate method to calculate EC50 values of the polypeptides against the human ETB receptor. Another method was provided for fitting a curve where activation rate of the test polypeptides at each concentration relative to the positive control sample human endothelin ET1 was calculated first with the method in Example 1, and a scatterplot was plotted, where the abscissa represented the activation rate, and the ordinate represented the logarithmic value of the polypeptide concentration. A curve was fitted with an appropriate method to calculate the EC50 values of the polypeptides against the human ETB receptor.

By half-life is commonly meant the time in which the quantity being followed falls by half. For the compound `CC[C@H](C)[C@H](NC(=O)[C@H](CC(=O)O)NC(=O)[C@H](CC(C)C)NC(=O)[C@H](Cc1c[nH]cn1)NC(=O)[C@H](C)NC(=O)[C@H](Cc1ccccc1)NC(=O)[C@H](Cc1ccc(O)cc1)NC(=O)[C@@H]1CCCCNC(=O)CC[C@H](NC(=O)[C@H](CC(=O)O)NC(=O)CCC(=O)O)C(=O)N[C@@H](CCC(=O)O)C(=O)N[C@@H](C)C(=O)N1)C(=O)N[C@H](C(=O)N[C@@H](Cc1c[nH]c2ccccc12)C(=O)O)[C@@H](C)CC` [BX-48] (Suc-DEEAKYFAHLDIIW-OH; lactam 2-5), the activation at 10 µM in data set [1] (@10µM) came out at 4.45%. For the same compound, the activation at 100 µM in data set [1] (@100µM) was found to be 9.37%. In data set [2], the “Grip Strength Test 3D/pre” value is 60% ±7%, the “Grip Strength Test 7D/pre” value is 66% ±22% and the “Grip Strength Test 24h/pre” value is recorded as 47% ±23%. In data set [3] (7D relative to pretest), the “Rotarod Test 7D/pretest (%) Distance, m” value is on record as 64.97%±19.43%; the “Rotarod Test 7D/pretest (%) Time, s” value was 81.64%±10.87%; the “Rotarod Test 7D/pretest (%) Velocity” value is recorded as 76.52%±13.55%. In data set [3] (24h relative to pretest), the “Rotarod Test 24h/pretest (%) Distance, m” value is recorded as 16.15%±22.62%; the “Rotarod Test 24h/pretest (%) Time, s” value is 23.79%±27.04%; the “Rotarod Test 24h/pretest (%) Velocity” value is reported as 47.16%±30.9A %. Besides, the “percentages of foot faults compared with the saline group and the IRL1620 group” value in data set [4] (pMACO rats, BX-34 7 µg/Kg, BX-48 5 µg/Kg, three administrations) is recorded as “lower”. Further, in data set [4] (percentage of foot faults at 7D, IRL1620 5 µg/Kg, BX34 7 µg/Kg, BX48 5 µg/Kg, administered 3 times (2, 4, 6 hours after modeling)), the “Foot fault Analysis Mean of 7D” value is 2.24%±3.1%. For the same compound, in data set [4] (percentage of foot faults at 24h, IRL1620 5 µg/Kg, BX34 7 µg/Kg, BX48 5 µg/Kg, administered 3 times (2, 4, 6 hours after modeling)), the “Foot fault Analysis Mean of 24h” value is 10.89%±10.53%. Further, the “Foot fault Analysis Mean of Pretest” value in data set [4] (percentage of foot faults, pretest (baseline before administration), groups IRL1620 5 µg/Kg, BX34 7 µg/Kg, BX48 5 µg/Kg, 3 times) is given as 1.11%±0.95%. For the same compound, the “percentages of foot faults” value in data set [5] is “lower than that of the saline group and the IRL1620 group”. The same compound yielded a half-life in data set [6] (C57 BL/6, mouse, plasma, iv) of 3.9 min. The “AUClast 0-30 min” value in data set [6] (C57 BL/6 mice, i.v., dosage per compound 0.48, 0.96 or 1 mpk) was determined as 757 ng·h/mL.
`CC[C@H](C)[C@H](NC(=O)[C@H](CC(=O)O)NC(=O)[C@@H]1CCCCNC(=O)CC[C@H](NC(=O)[C@H](CCC(=O)O)NC(=O)[C@H](CCC(=O)O)NC(=O)[C@H](CC(=O)O)NC(=O)/C=C/C(=O)O)C(=O)N[C@@H](C(C)C)C(=O)N[C@@H](Cc2ccc(O)cc2)C(=O)N[C@@H](Cc2ccccc2)C(=O)N[C@@H](CCCCN)C(=O)N[C@@H](Cc2c[nH]cn2)C(=O)N1)C(=O)N[C@H](C(=O)N[C@@H](Cc1c[nH]c2ccccc12)C(=O)O)[C@@H](C)CC` [QP-3] (Fumaroyl-DEEEVYFKHKDIIW-OH; lactam 4-10): in data set [7], the EC50 was found to be 3.85 nM.
Take `CC[C@H](C)[C@H](NC(=O)[C@H](CC(=O)O)NC(=O)[C@H](CCCCN)NC(=O)[C@H](Cc1c[nH]cn1)NC(=O)[C@H](C)NC(=O)[C@H](Cc1ccccc1)NC(=O)[C@H](Cc1ccc(O)cc1)NC(=O)[C@@H](NC(=O)[C@H](C)NC(=O)[C@H](CCC(=O)O)NC(=O)[C@H](CCC(=O)O)NC(=O)[C@H](CC(=O)O)NC(=O)/C=C/c1ccc(O)c(OC)c1)C(C)C)C(=O)N[C@H](C(=O)N[C@@H](Cc1c[nH]c2ccccc12)C(=O)O)[C@@H](C)CC` [BX-15] (Feruloyl-DEEAVYFAHKDIIW-OH; C-terminus assumed): in data set [7], the EC50 is 41.1 nM.
